Results from patent US20150093333A1, “COMPOSITIONS, METHODS AND USES FOR PEPTIDES IN DIAGNOSIS, PROGRESSION AND TREATMENT OF CANCERS” (THE REGENTS OF THE UNIVERSITY OF COLORADO, body corporate, priority 2003, published 2015).

Test system: synthetic vesicles of sizes 100 nm and 400 nm
Assay: Cosedimentation assay of MARCKS-ED with synthetic vesicles
Type: binding
Excerpt: In another exemplary method, lipid vesicles were employed to the curvature-sensing behavior of the MARCKS derived peptides with various sizes and lipid components. The membrane curvature is defined as the reciprocal of the diameter of a particular particle, e.g., smaller-sized vesicles present highly curved membrane bilayers. A series of lipid models were made to represent various lipid components that closely resemble the lipid composition of biological membranes. […] Dynamic light scattering (DLS) and negative-stain transmission electron microscopy (TEM) were performed to confirm the different vesicle sizes following the pressure-controlled extrusion process through different membrane diameter pores. Commercial polystyrene beads were used as the calibration standard for the vesicle size validation experiments. Furthermore, a time-course experiment was carried out to confirm the stability of the vesicles up to 16 hours. Three different membrane diameters were extruded for the following biophysical characterizations: 30 nm, 100 nm, 400 nm, reflecting different membrane curvatures.
In another exemplary method, a cosedimentation assay was performed to test the size differentiation behavior of MARCKS-ED. Two vesicle pore sizes, 100 and 400 nm, were used in this experiment because vesicles smaller than 100 nm were difficult to pellet even at high centrifugation speed. MARCKS-ED (10 μM) was incubated with 600 μM synthetic vesicles of sizes 100 nm and 400 nm. The positive control was the intact C2A-C2B cytoplasmic domains (C2AB) of rat Synaptotamin-1 (a.a. 96-421). C2AB (1.5 μM) was treated with CaCl2 (1 mM) and incubated with 300 μM synthetic vesicles of sizes 100 nm and 400 nm. C2AB treated with vesicles was incubated at room temperature for 30 minutes, followed by centrifugation of 65,000 rpm for 45 minutes at 20° C. MARCKS-ED treated with vesicles was incubated at room temperature for 2 hours, followed by 75,000 rpm for 45 minutes at 20° C. […]

KKKKKRFSFKKSFKLSGFSFKKNKK [MARCKS-ED]
pull-down by lipid vesicles without PS: less MARCKS-ED was pulled down
pull-down by 100 nm vs 400 nm PS-containing vesicles (gel electrophoresis of supernatant and pellet): binds more tightly to highly curved vesicles containing PS
